For this experiment, the target named is T1, Ba/F3 cell EGFR Exon20 ins NPH (Homo sapiens, UniProt P00533, INS773NPH).
T1 construct: expressed in transfected cells; host or cells: Ba/F3
Briefly: Ba/F3 cell proliferation suppression, EGFR Exon20 ins NPH. The experiment is classed as cell-based. The settings on record: GI50 class; Ba/F3 cell line with NPH inserted at Exon20 of EGFR; 72 hours. The method in brief: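 After 72 h compound exposure (twelve 3-fold steps, 0.3 nM–50 um final), live cells were measured by CellTiter-Glo luminescence and growth expressed as % of control to derive GI50. Cells were seeded at 3000–5000 per well a day earlier; Ba/F3 medium contained IL-3; three repeats.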

For the compound `C=CC(=O)Nc1cc(Nc2cc(N3OCC[C@@H]3c3ccc4ccccc4c3)ncn2)c(OC)cc1N1CCN(C)[C@@H](C)C1` [compound 662, N-(2-((S)-3,4-dimethylpiperazine-1-yl)-4-methoxy-5-((6-((R)-3-(naphthalene-2-yl)isoxazolidine-2-yl)pyrimidine-4-yl)amino)phenyl)acrylamide], the “Ba/F3 (NPH) Activity” value is given as “B (50 nM ≤ GI50 < 500 nM)”.
Consider `C=CC(=O)Nc1cc(Nc2cc(N3OCC[C@@H]3Cc3ccccc3)ncn2)c(OC)cc1N1CCC(N2CCN(C)CC2)CC1` [compound 963, N-(5-((6-((S)-3-benzylisoxazolidine-2-yl)pyrimidine-4-yl)amino)-4-methoxy-2-(4-(4-methylpiperazine-1-yl)piperidine-1-yl)phenyl)acrylamide], for which the “Ba/F3 (NPH) Activity” value was “A (GI50 < 50 nM)”.
With `C=CC(=O)Nc1cc(Nc2cc(N3OCC[C@@H]3c3cccc(Cl)c3C)ncn2)c(OC)cc1N(C)CCN(C)C` [compound 583, N-(5-((6-((R)-3-(3-chloro-2-methylphenyl)isoxazolidine-2-yl)pyrimidine-4-yl)amino)-2-((2-(dimethylamino)ethyl)(methyl)amino)-4-methoxyphenyl) acrylamide] the entry was “A (GI50 < 50 nM)”.
On to `C=CC(=O)Nc1cc(Nc2cc(N3OCC[C@@H]3c3ccc(F)c(F)c3F)ncn2)c(OC)cc1N1CCC(N2C[C@@H](C)O[C@@H](C)C2)CC1` [compound 576, N-(2-(4-((2S,6R)-2,6-dimethylmorpholino)piperidine-1-yl)-4-methoxy-5-((6-((R)-3-(2,3,4-trifluorophenyl)isoxazolidine-2-yl)pyrimidine-4-yl)amino)phenyl)acrylamide], for which the “Ba/F3 (NPH) Activity” value is recorded as “A (GI50 < 50 nM)”.
Then `C=CC(=O)Nc1cc(Nc2cc(N3OCC[C@@H]3Cc3ccccc3)ncn2)c(OC)cc1N1CC[C@@H](N(C)C)C1` [compound 964, N-(5-((6-((S)-3-benzylisoxazolidine-2-yl)pyrimidine-4-yl)amino)-2-((R)-3-(dimethylamino)pyrolidine-1-yl)-4-methoxyphenyl) acrylamide], with “A (GI50 < 50 nM)”.
Then `C=CC(=O)Nc1cc(Nc2cc(N3OCC[C@@H]3c3ccc(F)c(Cl)c3)ncn2)c(OC)cc1N1CCC(N2CC[C@@H](N(C)C)C2)CC1` [compound 769, N-(5-((6-((R)-3-(3-chloro-4-fluorophenyl)isoxazolidine-2-yl)pyrimidine-4-yl)amino)-2-(4-((R)-3-(dimethylamino)pyrolidine-1-yl)piperidine-1-yl)-4-methoxyphenyl) acrylamide], with “A (GI50 < 50 nM)”; and `C=CC(=O)Nc1cc(Nc2cc(N3OCC[C@@H]3c3cc(F)cc(Cl)c3)ncn2)c(OC)cc1N1CCC(N2CCO[C@@H](C)C2)CC1` [compound 595, N-(5-((6-((R)-3-(3-chloro-5-fluorophenyl)isoxazolidine-2-yl)pyrimidine-4-yl)amino)-4-methoxy-2-(4-((S)-2-methylmorpholino)piperidine-1-yl)phenyl) acrylamide], with “A (GI50 < 50 nM)”; and `C=CC(=O)Nc1cc(Nc2cc(N3OCC[C@@H]3c3ccc(F)cc3F)ncn2)c(OC)cc1N1CCN(C2CCN(C)CC2)CC1` [compound 345, N-(5-((6-((R)-3-(2,4-difluorophenyl)isoxazolidine-2-yl)pyrimidine-4-yl)amino)-4-methoxy-2-(4-(1-methylpiperidine-4-yl)piperazine-1-yl)phenyl)acrylamide], with “A (GI50 < 50 nM)”.
Take `C=CC(=O)Nc1cc(Nc2cc(N3OCC[C@@H]3c3cccc(OC)c3)ncn2)c(OC)cc1N1CC[C@H](N2CCOCC2)C1` [compound 778, N-(4-methoxy-5-((6-((R)-3-(3-methoxyphenyl)isoxazolidine-2-yl)pyrimidine-4-yl)amino)-2-((S)-3-morpholinopyrolidine-1-yl)phenyl)acrylamide]: the “Ba/F3 (NPH) Activity” value is given as “B (50 nM ≤ GI50 < 500 nM)”.
With `C=CC(=O)Nc1cc(Nc2cc(N3OCC[C@@H]3c3ccc4ccccc4c3)ncn2)c(OC)cc1N1CCC(N2CCN(C(C)=O)CC2)CC1` [compound 556, N-(2-(4-(4-acetylpiperazine-1-yl)piperidine-1-yl)-4-methoxy-5-((6-((R)-3-(naphthalene-2-yl)isoxazolidine-2-yl)pyrimidine-4-yl)amino)phenyl) acrylamide] the entry was “B (50 nM ≤ GI50 < 500 nM)”.
With `C=CC(=O)Nc1cc(Nc2cc(N3OCC[C@@H]3c3ccc(F)cc3F)ncn2)c(OC)cc1N1CCC(N2C[C@@H]3C[C@H]2CO3)CC1` [compound 381, N-(2-(4-((1S,4S)-2-oxa-5-azabicyclo[2.2.1]heptane-5-yl)piperidine-1-yl)-5-((6-((R)-3-(2,4-difluorophenyl)isoxazolidine-2-yl)pyrimidine-4-yl)amino)-4-methoxyphenyl) acrylamide] the entry was “A (GI50 < 50 nM)”; with `C=CC(=O)Nc1cc(Nc2cc(N3OCC[C@@H]3c3c(F)ccc(F)c3F)ncn2)c(OC)cc1N1CCC(N2CCN(C3CCC3)CC2)CC1` [Example 194, N-(2-(4-(4-cyclobutylpiperazine-1-yl)piperidine-1-yl)-4-methoxy-5-((6-((R)-3-(2,3,6-trifluorophenyl)isoxazolidine-2-yl)pyrimidine-4-yl)amino)phenyl)acrylamide], “A (GI50 < 50 nM)”.
Turning to `C=CC(=O)Nc1cc(Nc2cc(N3OCC[C@@H]3c3ccc(F)cc3F)ncn2)c(OC)cc1N1CCC(N2C[C@@H]3C[C@H]2CN3CC)CC1` [compound 382, N-(5-((6-((R)-3-(2,4-difluorophenyl)isoxazolidine-2-yl)pyrimidine-4-yl)amino)-2-(4-((1S,4S)-5-ethyl-2,5-diazabicyclo [2.2.1]heptane-2-yl)piperidine-1-yl)-4-methoxyphenyl) acrylamide], the “Ba/F3 (NPH) Activity” value is “A (GI50 < 50 nM)”.
With `C=CC(=O)Nc1cc(Nc2cc(N3OCC[C@@H]3Cc3cccc(Cl)c3Cl)ncn2)c(OC)cc1N1CCC(N2CCN(C3CC3)[C@H](C)C2)CC1` [compound 980, N-(2-(4-((R)-4-cyclopropyl-3-methylpiperazine-1-yl)piperidine-1-yl)-5-((6-((S)-3-(2,3-dichlorobenzyl)isoxazolidine-2-yl)pyrimidine-4-yl)amino)-4-methoxyphenyl) acrylamide] the entry was “A (GI50 < 50 nM)”; with `C=CC(=O)Nc1cc(Nc2cc(N3OCC[C@@H]3c3cc(F)cc(Cl)c3)ncn2)c(OC)cc1N1CCC(N2CCOCC2)CC1` [compound 589, N-(5-((6-((R)-3-(3-chloro-5-fluorophenyl)isoxazolidine-2-yl)pyrimidine-4-yl)amino)-4-methoxy-2-(4-morpholinopiperidine-1-yl)phenyl)acrylamide], “A (GI50 < 50 nM)”; with `C=CC(=O)Nc1cc(Nc2cc(N3OCC[C@@H]3c3ccc(Cl)c(F)c3)ncn2)c(OC)cc1N1CCN(CC)CC1` [compound 798, N-(5-((6-((R)-3-(4-chloro-3-fluorophenyl)isoxazolidine-2-yl)pyrimidine-4-yl)amino)-2-(4-ethylpiperazine-1-yl)-4-methoxyphenyl) acrylamide], “A (GI50 < 50 nM)”.
Regarding `C=CC(=O)Nc1cc(Nc2cc(N3OCC[C@@H]3c3ccc(F)c(Cl)c3F)ncn2)c(OC)cc1N1CC[C@@H](N(C)C)C1` [compound 599, N-(5-((6-((R)-3-(3-chloro-2,4-difluorophenyl)isoxazolidine-2-yl)pyrimidine-4-yl)amino)-2-((R)-3-(dimethylamino)pyrolidine-1-yl)-4-methoxyphenyl) acrylamide], the “Ba/F3 (NPH) Activity” value was “A (GI50 < 50 nM)”.
With `C=CC(=O)Nc1cc(Nc2cc(N3OCC[C@@H]3c3cccc(C#N)c3)ncn2)c(OC)cc1N1CCC(N2CCOCC2)CC1` [compound 400, N-(5-((6-((R)-3-(3-cyanophenyl)isoxazolidine-2-yl)pyrimidine-4-yl)amino)-4-methoxy-2-(4-morpholinopiperidine-1-yl)phenyl)acrylamide] the entry was “A (GI50 < 50 nM)”; with `C=CC(=O)Nc1cc(Nc2cc(N3OCC[C@@H]3Cc3cccnc3)ncn2)c(OC)cc1N1CCC(N2CCN(C3CC3)CC2)CC1` [compound 985, N-(2-(4-(4-cyclopropylpiperazine-1-yl)piperidine-1-yl)-4-methoxy-5-((6-((S)-3-(pyridine-3-ylmethyl)isoxazolidine-2-yl)pyrimidine-4-yl)amino)phenyl) acrylamide], “C (500 nM ≤ GI50 < 5000 nM)”; with `C=CC(=O)Nc1cc(Nc2cc(N3OCC[C@@H]3c3c(F)ccc(F)c3Cl)ncn2)c(OC)cc1N1CCC(N2C[C@@H]3C[C@H]2CO3)CC1` [compound 693, N-(2-(4-((1S,4S)-2-oxa-5-azabicyclo[2.2.1]heptane-5-yl)piperidine-1-yl)-5-((6-((R)-3-(2-chloro-3,6-difluorophenyl)isoxazolidine-2-yl)pyrimidine-4-yl)amino)-4-methoxyphenyl) acrylamide], “A (GI50 < 50 nM)”.
On to `C=CC(=O)Nc1cc(Nc2cc(N3OCC[C@@H]3Cc3ccc(C(F)(F)F)cc3)ncn2)c(OC)cc1N1CCN(C2CC2)CC1` [compound 1049, N-(2-(4-cyclopropylpiperazine-1-yl)-4-methoxy-5-((6-((S)-3-(4-(trifluoromethyl)benzyl)isoxazolidine-2-yl)pyrimidine-4-yl)amino)phenyl) acrylamide], for which the “Ba/F3 (NPH) Activity” value is given as “C (500 nM ≤ GI50 < 5000 nM)”.
Then `C=CC(=O)Nc1cc(Nc2cc(N3OCC[C@@H]3c3ccc(F)c(F)c3)ncn2)c(OC)cc1N1CCC(N2CCN(C(C)C)CC2)CC1` [compound 501, N-(5-((6-((R)-3-(3,4-difluorophenyl)isoxazolidine-2-yl)pyrimidine-4-yl)amino)-2-(4-(4-isopropylpiperazine-1-yl)piperidine-1-yl)-4-methoxyphenyl) acrylamide], with “A (GI50 < 50 nM)”.

Source of the values: patent US12157730B2, “Heteroaryl derivative, method for producing same, and pharmaceutical composition comprising same as effective component” (VORONOI INC., priority 2019, dated 2024).
